These results are taken from patent US20080292619A1, “Pharmaceutical Composition Containing Meltrin Antagonist” (MOCHIDA PHARMACEUTICAL CO., LTD., priority 2004, published 2008).

In the oligonucleotide strings, read from the 5' end, every base follows the letter of its sugar. An asterisk marks phosphorothioate; unmarked linkages are phosphodiester. Other units and linkages are bracketed, terminal groups are in braces. A string of capitals states the bases alone. d = 2'-deoxy (DNA)

The test system of one series is human preadipocyte. As to the kind of experiment: Effect of antisense compound on adipocyte proliferation and differentiation (Adipo Red). The series is classed as cell-based. The protocol:
First, human preadipocyte (Human Preadipocytes-sq POIETICS #PT-5020, Sanko Junyaku Co., Ltd.) was suspended in growth medium (#PT-8200, Sanko Junyaku Co., Ltd.), and after adding the suspension to a 96 well culture plate at 1×10^4 cells/well/100 μL, the cells were cultured overnight at 37° C. in the presence of 5% CO2.
The preadipocyte was cultured overnight, and after washing the preadipocyte twice with serum-free DMEM, Opti-MEM was added at 80 μL/well.
Gene transfection reagent Lipofectin was diluted with Opti-MEM to 20 μg/mL, and the dilution was allowed to stand at room temperature for 30 minutes. Next, the antisense oligodeoxynucleotide synthesized as described above was heated at 90° C. for 3 minutes, and after quenching on ice, diluted with Opti-MEM to a concentration 10 times higher than the final concentration. Equal amounts of the Lipofectin in Opti-MEM and the antisense oligodeoxynucleotide in Opti-MEM were mixed, and the mixture was incubated at room temperature for 15 minutes and added to 96 well plate at 20 μL/well. After incubating at 37° C. for 4 hours in the presence of 5% CO2, it was used for examination as described below.
The differentiation medium was prepared by using growth medium (#PT-8200, Sanko Junyaku Co., Ltd.) and supplement kit (PGM Single Quots, #PT-9500, Sanko Junyaku Co., Ltd.) according to the instruction of the kit. Next, the culture supernatant containing the Lipofectin was removed from the 96 well plate prepared in the above (2), and the plate was washed twice with serum-free DMEM, and the differentiation medium prepared as described above was added at 100 μL/well. The plate was then incubated at 37° C. for 5 days to 15 days in the presence of 5% CO2.
Accumulation of the neutral fat in the adipocyte was determined by fluorometry using Adipo Red stain.
After taking the 96 well plate out of the CO2 incubator, the plate was allowed to stand until it reached room temperature. The plate was centrifuged at 300 g (1200 rpm) for 10 minutes at room temperature to remove the medium. Next, after gently washing with PBS (SIGMA) at 200 μL/well, PBS was added to the well at 200 μL/well. Next, Adipo Red Assay Reagent (Adipo Red, Cat. #PT-7009, Lot.3F0497, A Cambrex Company) was added at 5 μL/well, and the plate was allowed to stand at room temperature for at least 10 minutes to thereby stain the neutral fat accumulated in the adipocyte. The fat accumulation was determined by measuring fluorescence intensity in a fluorometer at an excitation wavelength of 485 nm and an emission wavelength of 535 nm.
The suppression rate of the adipocyte differentiation was calculated by converting the fluorescence intensity of the well transfected with the antisense compound in relation to the fluorescence intensity of the well without transfection with the antisense compound which was assumed as 100%. The result was rated “+” when the suppression rate was at least 25%, “++” when the suppression rate was at least 50%, and “+++” when the suppression rate was at least 75%.

In another series the test system is human meltrin α RNA. The series can be described thus: Suppression of human meltrin α expression by antisense compound in RD cell (real time PCR). Type of series: cell-based. Particulars: for suppression rate of expression, 50 nM / suppression rate of expression, 200 nM: corrected by GAPDH; for RNase H-dependent activity of suppressing the meltrin α expression: 2′-methoxy modified form compared to the phosphorothioate form. The method, boiled down:
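RD cells transfected with heat-denatured antisense oligodeoxynucleotide plus Lipofectin in Opti-MEM for 4 h at 37° C, then cultured 18 h. Meltrin α RNA quantified by TaqMan RT-PCR against plasmid standard curve, GAPDH-corrected; suppression vs untreated cells, rated +/++/+++ for ≥30/50/70%.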
For orientation: In qPCR the cycle at which signal appears reflects the starting amount.

Turning to “H144 + 18: ggccagaggatctgcaggca (GGCCAGAGGATCTGCAGGCA; antisense; DNA, all phosphorothioate, methylation of C not given here)”, the “Score (suppressing the human adipocyte differentiation)” value with human preadipocyte was “++ (“++” when the suppression rate was at least 50%)”. In addition, the “suppression rate of expression, 50 nM” value in the series on human meltrin α RNA (50 nM, RD cell) is “+++ (“+++” when the suppression rate was at least 70%)”. For the same substance, the “RNase H-dependent activity of suppressing the meltrin α expression” value (“RNase H-dependent activity” for short) in the series on human meltrin α RNA was “reduced activity of suppressing the meltrin α expression”.

In the case of “H143 + 15: gcttctgaggggggtttggc (GCTTCTGAGGGGGGTTTGGC; antisense; DNA, all phosphorothioate, methylation of C not given here)”, in the series on human preadipocyte, the “Score (suppressing the human adipocyte differentiation)” value is on record as “++ (“++” when the suppression rate was at least 50%)”. For the same substance, the “suppression rate of expression, 50 nM” value with human meltrin α RNA (50 nM, RD cell) was “+++ (“+++” when the suppression rate was at least 70%)”.

“H139 + 14: taggtgcacgtggggcccgg (TAGGTGCACGTGGGGCCCGG; antisense; DNA, all phosphorothioate, methylation of C not given here)”: the “Score (suppressing the human adipocyte differentiation)” value in the series with human preadipocyte is “++ (“++” when the suppression rate was at least 50%)”. Also, in the series on human meltrin α RNA (50 nM, RD cell), the “suppression rate of expression, 50 nM” value is “++ (“++” when the suppression rate was at least 50%)”.

As for “H136 + 19: ctgagggacattcaggccgt (CTGAGGGACATTCAGGCCGT; antisense; DNA, all phosphorothioate, methylation of C not given here)”, in the series with human preadipocyte, the “Score (suppressing the human adipocyte differentiation)” value is on record as “+ (“+” when the suppression rate was at least 25%)”. The “suppression rate of expression, 50 nM” value in the series on human meltrin α RNA (50 nM, RD cell) was “+++ (“+++” when the suppression rate was at least 70%)”.

On to “H131: caaggtggccgaggtgagcc (CAAGGTGGCCGAGGTGAGCC; antisense; DNA, all phosphorothioate, methylation of C not given here)”, for which, in the series on human preadipocyte, the “Score (suppressing the human adipocyte differentiation)” value is recorded as “+++ (“+++” when the suppression rate was at least 75%)”. In the series with human meltrin α RNA (50 nM, RD cell), the “suppression rate of expression, 50 nM” value is reported as “++ (“++” when the suppression rate was at least 50%)”. Moreover, in the series on human meltrin α RNA (RD cell), the “suppression rate of expression, 200 nM” value is “+++ (“+++” when the suppression rate was at least 70%)”. For the same substance, the “RNase H-dependent activity” value in the series on human meltrin α RNA is reported as “reduced activity of suppressing the meltrin α expression”.

With “H135 + 15: gggtctgctgatgtcaacat (GGGTCTGCTGATGTCAACAT; antisense; DNA, all phosphorothioate, methylation of C not given here)”, the “Score (suppressing the human adipocyte differentiation)” value with human preadipocyte is on record as “+ (“+” when the suppression rate was at least 25%)”.

Consider “H005: tgcgtcgcgcgcgcgccgtt (TGCGTCGCGCGCGCGCCGTT; antisense; DNA, all phosphorothioate, methylation of C not given here)”, for which the “Score (suppressing the human adipocyte differentiation)” value with human preadipocyte is given as “++ (“++” when the suppression rate was at least 50%)”. Besides, in the series on human meltrin α RNA (50 nM, RD cell), the “suppression rate of expression, 50 nM” value is recorded as “++ (“++” when the suppression rate was at least 50%)”. Besides, the “suppression rate of expression, 200 nM” value with human meltrin α RNA (RD cell) is “++ (“++” when the suppression rate was at least 50%)”.

For the substance “5 (dG*dT*dT*dT*dG*dG*dC*dT*dT*dA*dC*dA*dG*dG*dT*dC*dC*dC*dC*dT) [compound 5]”, in the series with human preadipocyte (300 nM, human preadipocyte), the “Supression of adipose differentiation 300 nM” value is recorded as “++ (“++” when the suppression rate was at least 50%)”. Further, the “Supression of expression, 50 nM” value in the series with human meltrin α RNA (50 nM, RD cell) is on record as “++ (“++” when the suppression rate was at least 50%)”.

With “H130: tgacagggttggaagccacg (TGACAGGGTTGGAAGCCACG; antisense; DNA, all phosphorothioate, methylation of C not given here)”, the “Score (suppressing the human adipocyte differentiation)” value in the series with human preadipocyte is given as “+++ (“+++” when the suppression rate was at least 75%)”. Moreover, the “suppression rate of expression, 50 nM” value with human meltrin α RNA (50 nM, RD cell) is given as “++ (“++” when the suppression rate was at least 50%)”. Moreover, the “suppression rate of expression, 200 nM” value with human meltrin α RNA (RD cell) is on record as “+++ (“+++” when the suppression rate was at least 70%)”. Moreover, the “RNase H-dependent activity” value in the series on human meltrin α RNA is “reduced activity of suppressing the meltrin α expression”.

Turning to “H151: gtgtgggtggatctgggcac (dG*dT*dG*dT*dG*dG*dG*dT*dG*dG*dA*dT*dC*dT*dG*dG*dG*dC*dA*dC)”, in the series on human preadipocyte, the “Score (suppressing the human adipocyte differentiation)” value is listed as “++ (“++” when the suppression rate was at least 50%)”. The “suppression rate of expression, 50 nM” value in the series on human meltrin α RNA (50 nM, RD cell) is “++ (“++” when the suppression rate was at least 50%)”. The “suppression rate of expression, 200 nM” value in the series on human meltrin α RNA (RD cell) was “+++ (“+++” when the suppression rate was at least 70%)”. Further, in the series on human meltrin α RNA, the “RNase H-dependent activity” value is “reduced activity of suppressing the meltrin α expression”.

In the case of “H133 + 2: tcggtgggtaggaatctggc (TCGGTGGGTAGGAATCTGGC; antisense; DNA, all phosphorothioate, methylation of C not given here)”, in the series with human preadipocyte, the “Score (suppressing the human adipocyte differentiation)” value is “+ (“+” when the suppression rate was at least 25%)”. In the series on human meltrin α RNA (50 nM, RD cell), the “suppression rate of expression, 50 nM” value was “++ (“++” when the suppression rate was at least 50%)”.
